Results taken from patent US20240174680A1, “CDK2 INHIBITORS AND METHODS OF USING THE SAME” (Cedilla Therapeutics, Inc., priority 2021, published 2024).

How the values were obtained:
Kuramochi cells = assay: BrdU cell proliferation assay (colorimetric ELISA); format: cell-based; conditions: read-out: BrdU - KURAMOCHI.1: IC50
Procedure: A BrdU assay was used as a measure of proliferation based on the DNA replication process of proliferating cells. BrdU, a pyrimidine analog, is added to the cell culture and incorporated into the DNA of proliferating cells. The presence of the BrdU analog was then measured through a colorimetric ELISA. After fixation and permeabilization of cells, peroxidase-conjugated antibody recognizing BrdU is added and allowed to incubate, followed by thorough washing to remove unbound antibody. In order to quantify the amount of bound antibody, peroxidase substrate is added and produces a color that can be measured at 450 nm.
On day −1, Kuramochi cells (Sekisui XenoTech JCRB0098) were seeded at 2,000 cells/well in columns 2-12 of a 96 well plate (Corning, CLS3596) in 150 μL media and allowed to adhere overnight at 37 degree with 5% CO2.
On day 0, the source plate was prepared by adding 10 mM compounds and performing 3-fold serial dilutions for a 10-point dose response of each compound. Using a multichannel pipette, 2 μL of the contents of the source plate were stamped into an intermediate plate with 500 μL of RPMI 1640 Media, GlutaMAX Supplement (Life Technologies, 61870127) in each well of a Nunc 96 DeepWell™ plate, non-treated 96 DeepWell plate, 2 mL/well, sterile, natural, 60/cs (Sigma Z717274) and mixed thoroughly. 50 μL from each well of this intermediate plate were added to 4 wells of a 96-well plate with previously seeded Kuramochi cells.
On day 4, the plates were developed using the BrdU ELISA Cell Proliferation Assay according to manufacturer's instructions (Roche, 11647229001). Briefly, BrdU was diluted 1:100 in Gibco®, OptiMEM® and 20 μL/well was added, shaken for 10 minutes at 350 rpm, and then returned to the incubator for 1 hour. Following incubation, the medium was discarded, and the cells were fixed by adding 200 μL of Fix/Denature solution. The anti-BrdU peroxidase antibody was diluted 1:1000 in OptiMEM, added at 100 μL/well, and incubated while shaking (350 rpm) for one hour. Three washes with PBS were performed to remove any unbound antibody, followed by the addition of 100 μL of substrate solution to each well. 25 μL/well of 1M sulfuric acid solution was then added to halt the reaction, and plates were read out using an Envision spectrophotometer (Perkin Elmer) set to read 450 nm absorbance. Background absorbance values from empty wells were subtracted from all samples and then normalized to DMSO treated wells.

[1] = system: Kuramochi cells labeled with mApple-H2B; assay: IncuCyte cell proliferation assay; format: cell-based; conditions: 72 hours
Procedure: IncuCyte® assay was used to measure the effect of disclosed compounds on cell proliferation. Fluorescent microscopy images of cells were taken immediately after compound treatment and 72 hours later. Image analysis software was used to obtain cell counts as a function of compound concentration. Kuramochi cells labeled with mApple-H2B were seeded on 384-well assay-ready plates. Plates were placed in an IncuCyte® (Sartorius) and scanned at 0 and 72 hours. IncuCyte® software was used to count the number of fluorescent nuclei in each well. The fold change in cell count from 0 to 72 hours in wells treated with increasing compounds concentrations (10 pts, 1/2 log dilution, 20 μM top concentration) was normalized to DMSO control wells. The normalized cell counts were fit with dose response curves and a […] was calculated.
Compounds with an ICp greater than 0.5 μM and less than or equal to 5.0 μM are designated as “B”.

CDK2/Cyclin E1 = CDK2/Cyclin E1 (Homo sapiens, UniProt P24941); assay: CDK2/Cyclin E1 Caliper LabChip EZ Reader mobility shift assay; format: biochemical; design: purchased Eurofins 14-475; conditions: read-out: Caliper Assay (CDK2/CCNE1): IC50
Outline: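 Substrate-to-product conversion of fluorescent peptide (1.5 μM final) read by capillary electrophoresis after 100 min reaction, EDTA-quenched. Enzyme (2.5 nM final) and ATP (100 μM final) were preincubated 30 min with inhibitor dilutions first. % activity vs concentration fitted four-parameter for IC50.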

Row | IC50 (CDK2/Cyclin E1) | SMILES | IC50 (Kuramochi cells) | IC50 [1]
1 | – | C[C@@H](OCC1CCC(F)(F)CC1)[C@H](NC(=O)C1CN(C(=O)c2cnn(Cc3ccc(F)cc3)c2)CC12CN(C(=O)C1(C(F)(F)F)CC1)C2)C(=O)N1CCC(F)(F)CC1 (single isomer, unassigned) [I-190B] | 0.5 to 5 µM | 5 to 20 µM
2 | > 10 µM | CNC(=O)[C@@H](NC(=O)[C@H]1CN(Cc2cnn(C)c2)CC12CN(C(=O)[C@H]1CC1(C)C)C2)[C@@H](C)OCc1ccccc1 [I-47B] | > 10 µM | –
3 | > 10 µM | CNC(=O)[C@@H](NC(=O)[C@@H]1CN(C(=O)c2cncs2)CC12CN(CC1CCOCC1)C2)[C@@H](C)OCC12CCC(CC1)OC2 [I-346] | > 10 µM | > 20 µM
4 | – | C[C@@H](OCc1ccccc1)[C@H](NC(=O)C1CN(C(=O)c2cnn(Cc3ccccc3)c2)CC12CN(C(=O)C1CC1(C)C)C2)C(=O)NCCCCCNC(=O)OC(C)(C)C (some centres unmarked) [I-52] | 0.5 to 5 µM | 0.5 to 5 µM
5 | – | C[C@@H](OCC1CCOCC1)[C@@H](COC(F)F)NC(=O)[C@@H]1CN(C(=O)c2cncs2)CC12CN(C(=O)[C@H]1CC1(C)C)C2 [I-441] | – | > 20 µM
6 | – | CNC(=O)[C@@H](NC(=O)[C@@H]1CN(C(=O)c2cncs2)CC12CN(C(=O)[C@H]1CC1(C)C)C2)c1nnc(C2CCCCC2)o1 [I-429] | > 10 µM | > 20 µM
7 | – | C[C@@H](OCc1ccccc1)[C@H](NC(=O)C1CN(C(=O)c2cnn(Cc3ccccc3)c2)CC12CN(C(=O)C1CC1(C)C)C2)C(=O)NCCCCCN (some centres unmarked) [I-57] | > 10 µM | –
8 | – | C[C@@H](OCC1CCOCC1)[C@H](NC(=O)[C@@H]1CN(C(=O)c2cncs2)CC12CN(C(=O)[C@H]1CC1(C)C)C2)C(=O)N1CCC(c2ccncc2)CC1 [I-442] | – | 5 to 20 µM
9 | 0.01 to 0.1 µM | C[C@@H](OCC1CCC(F)(F)CC1)[C@H](NC(=O)[C@@H]1CN(C(=O)c2cnn(Cc3ccc(F)cc3)c2)CC12CN(C(=O)C1(C(F)(F)F)CC1)C2)C(=O)N1CCC(F)(F)CC1 [I-190A] | – | ≤ 0.5 µM
10 | – | COCC1CCCN(C(=O)[C@@H](NC(=O)[C@H]2CN(C(=O)c3cnn(Cc4ccccc4)c3)CC23CN(C(=O)[C@H]2CC2(C)C)C3)[C@@H](C)OCC2CCCCC2)C1 (some centres unmarked) [I-111] | ≤ 0.5 µM | 0.5 to 5 µM
11 | > 10 µM | CC(C)O[C@H]1C[C@@H](NC(=O)[C@@H]2CN(C(=O)c3cnn(Cc4ccccc4)c3)CC23CN(C(=O)[C@H]2CC2(C)C)C3)C1 [I-234] | > 10 µM | –
